Assay results from patent US11932657B2, “Heterocyclic compound” (priority 2018, dated 2024).

Key:
[1] = target: T1, aryl hydrocarbon receptor (AhR) (Homo sapiens, UniProt P35869); assay: AhR reporter gene assay (aryl hydrocarbon receptor antagonist activity, DRE-Luc HepG2 cells, TCDD-stimulated luciferase); assay type: cell-based
T1 construct: DRE-Luc HepG2 cells subcultured in a 225 cm^2 flask; endogenous in cells; host or cells: HepG2 (ATCC), stably transfected with the reporter hCYP1A1/pGL4.27 (DRE-Luc HepG2)
T1 sequence (P35869 11-848): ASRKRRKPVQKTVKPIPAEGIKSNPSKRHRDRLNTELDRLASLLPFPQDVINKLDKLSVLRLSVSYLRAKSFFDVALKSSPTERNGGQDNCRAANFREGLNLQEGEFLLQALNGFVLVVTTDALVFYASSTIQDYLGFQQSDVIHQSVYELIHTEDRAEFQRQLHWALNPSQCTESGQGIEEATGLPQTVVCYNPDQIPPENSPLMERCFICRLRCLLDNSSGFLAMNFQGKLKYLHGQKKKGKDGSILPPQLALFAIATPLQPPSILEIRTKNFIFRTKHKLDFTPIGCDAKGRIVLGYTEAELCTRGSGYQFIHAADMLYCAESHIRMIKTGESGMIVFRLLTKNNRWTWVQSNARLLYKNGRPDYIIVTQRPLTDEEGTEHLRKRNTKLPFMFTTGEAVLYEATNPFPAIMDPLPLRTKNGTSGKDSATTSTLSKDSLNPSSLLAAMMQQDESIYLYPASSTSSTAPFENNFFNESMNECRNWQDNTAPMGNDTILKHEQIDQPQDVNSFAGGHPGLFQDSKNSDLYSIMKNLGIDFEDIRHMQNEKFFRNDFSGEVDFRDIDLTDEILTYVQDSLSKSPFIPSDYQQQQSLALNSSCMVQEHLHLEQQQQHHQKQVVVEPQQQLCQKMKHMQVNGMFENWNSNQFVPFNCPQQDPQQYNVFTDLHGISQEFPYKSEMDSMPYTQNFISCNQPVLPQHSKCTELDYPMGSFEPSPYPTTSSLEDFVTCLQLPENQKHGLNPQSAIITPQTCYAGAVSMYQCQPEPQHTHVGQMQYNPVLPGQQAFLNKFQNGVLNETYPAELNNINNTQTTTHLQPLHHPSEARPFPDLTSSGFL
Description: Test Example 1 (Aryl Hydrocarbon Receptor Antagonist Activity)
An expression vector, hCYP1A1/pGL4.27 was introduced into HepG2 cells (derived from American Type Culture Collection (ATCC)) that were seeded in 6-well plates (#3810-006 (Iwaki)) at 1.2×10^6 cells/well, using Lipofectamine 3000 (#100022050 (Invitrogen)). Referring to Garrion P M et al., Fundam Appl Toxicol, 30, 194 (1996), the vector hCYP1A1/pGL4.27 incorporated the human CYP1A1 promotor region including dioxin responsive element (DRE) region of the AhR binding region into the XhoI-BglII restriction enzyme site of pGL4.27 (#E8451 (Promega)). After 24 hours, medium-1 was replaced, and after 48 hours, the medium-1 containing hygromycin B (200 to 1000 μg/mL) was subjected to drug treatment. Culturing using the medium containing hygromycin B was continued for about 1 month to clone 24 clones showing drug resistance. A cell line showing high reporter activity was selected (DRE-Luc HepG2) from drug resistant lines using as an indicator luciferase activity (Dual-Glo Luciferase substrate, #E297A (Promega)) relative to an AhR agonist, 2,3,7,8-tetrachlorodibenzo-p-dioxin (TCDD) (#ED-901-B (CIL.)).
DRE-Luc HepG2 cells subcultured in a 225 cm^2 flask (#11-0005 (Iwaki)) were washed with PBS (#1419-144 (Gibco), Lot: 1896207), and thereto was added 8 mL of Trypsin-EDTA (0.05%) (#25300-054 (Gibco)). Thereafter, an excessive liquid was removed from the mixture, and the cells were stood at room temperature for 5 minutes. Thereto was added 10 mL of medium-2, the cells were recovered through a cell strainer (#352350 (Falcon), 70 μm), and the number of cells were then counted using a hemocytometer. A cell suspension was prepared at 3×10^5 cells/mL, 100 μL/well of the cell suspension was seeded into a 96-well white plate (#136101, F96 Microwell (Nunc)), and the cells were then cultured in a CO2 incubator (5% CO2, 37° C.). After 24 hours, the medium was aspirated, and thereto was added 100 μL of an assay medium solution including the compound of the present invention, and the cells were cultured in the CO2 incubator (5% CO2, 37° C.). After 24 hours, 11 μL of an assay medium solution including 5×10^−10 M TCDD (#ED-901-B (CIL.)) was added thereto and the cells were cultured in the CO2 incubator (5% CO2, 37° C.). After 24 hours, 50 μL of a reaction substrate (#E253B, Steady-Glo Luciferase substrate (Promega)) for Firefly Luciferase enzyme reaction was added to each well, and after 5 minute-shaking, the light emission intensity was measured with Wallac ARVO 1420sx (PerkinElmer).

[2] = system: immortalized megakaryocyte line (SeV2-MKCL); assay: Platelet production: static culturing of immortalized megakaryocyte line; assay type: cell-based; conditions: compound final concentration 0.1 μM, static culturing 6 to 7 days, control (DMSO) set to 1; platelets = CD41, CD42b and CD42a-positive cells
Description: Test Example 2 (Platelet Production: Static Culturing)
The immortalized megakaryocyte line (SeV2-MKCL) obtained according to the method described in WO 2016/204256 was washed twice with D-PBS(−) and then cultured in medium not containing doxycycline to terminate forced expression. Culturing was implemented by seeding the cells at 1 mL/well in a 24-well plate (#662160 (Greiner Rio-One)) at a seeding density of 1×10^5 cells/mL followed by static culturing in the medium indicated below.
The medium was obtained by adding the following components to IMDM serving as the basal medium (concentrations indicate final concentrations).
Culturing was implemented under conditions of 37° C. and 5% CO2. At the same time, the compound of the present invention (final concentration 0.1 μM) or DMSO (control) was added and cultured for 6 to 7 days. Thereafter, the number of platelets (CD41, CD42b, and CD42a-positive cells) was measured. The measurement method was as shown below. The same procedure was performed with the control.
A portion of the culture supernatant was harvested 6 to 7 days after culturing to terminate gene expression, and suspended with the following antibodies to stain them. eFluor 450-labeled anti-CD42a antibody (#48-0428-42 (eBioscience)) PE-labeled anti-CD42b antibody (#303906 (BioLegend)) APC-labeled anti-CD41 antibody (#303710 (BioLegend)) The number of platelets was counted using FACSVerse manufactured by BD 30 minutes after the stain reaction. In the measurement of the number of platelets, the number of cells was corrected using Flow-count beads (#7547053 (Beckman Coulter)).
The number of platelets produced from one megakaryocyte cell was calculated based on the number of platelets in the sample obtained by the FACS measurement, and the result was defined as platelet production efficiency (PLT/MK) and used for evaluation of drug efficacy of the compound. In addition, the specific activity at the time when the platelet production efficiency of the control was set to 1 was indicated as fold increase.

SMILES: CC1(C)COc2nc3c(NCCc4c[nH]c5ccccc45)nc(-c4cccc(F)c4)nc3n21 [Example 85]
- IC50 [1]: 27 nM
- Static (vs veh): fold increase of platelet production efficiency (PLT/MK) [2]: 6.1

SMILES: CC1(C)CSc2nc3c(NCCc4ccc(O)c(-c5ccccc5)c4)nc(-c4cncc(C#N)c4)nc3n21 [Example 48]
- IC50 [1]: 0.42 nM
- Static (vs veh): fold increase of platelet production efficiency (PLT/MK) [2]: 3.5

SMILES: CC1(C)COc2nc3c(NCCc4ccc(O)c(-c5cccc(C#N)c5F)c4)nc(-c4cncc(F)c4)nc3n21 [Example 55]
- IC50 [1]: 1.2 nM
- Static (vs veh): fold increase of platelet production efficiency (PLT/MK) [2]: 6.8

SMILES: C[C@H]1CSc2nc3c(NCCc4ccc(O)c(-c5cccc(F)c5)c4)nc(-c4cncc(F)c4)nc3n21 [Example 31]
- IC50 [1]: 0.46 nM
- Static (vs veh): fold increase of platelet production efficiency (PLT/MK) [2]: 5.9

SMILES: CC1(C)COc2nc3c(NCCc4ccc(O)c(-c5cc(C#N)ccc5F)c4)nc(-c4cncc(F)c4)nc3n21 [Example 54]
- IC50 [1]: 4.1 nM
- Static (vs veh): fold increase of platelet production efficiency (PLT/MK) [2]: 5.9

SMILES: Cc1ccccc1-c1cc(CCNc2nc(-c3cncc(F)c3)nc3c2nc2n3C(C)(C)CO2)ccc1O [Example 40]
- IC50 [1]: 40 nM
- Static (vs veh): fold increase of platelet production efficiency (PLT/MK) [2]: 9.8

SMILES: CC1(C)COc2nc3c(NCCc4ccc(O)c(-c5cc(F)ccc5F)c4)nc(-c4cncc(F)c4)nc3n21 [Example 10]
- IC50 [1]: 11 nM
- Static (vs veh): fold increase of platelet production efficiency (PLT/MK) [2]: 5.5

SMILES: C[C@@H]1CSc2nc3c(NCCc4ccc(O)c(-c5ccccc5F)c4)nc(-c4cncc(F)c4)nc3n21 [Example 28]
- IC50 [1]: 0.4 nM
- Static (vs veh): fold increase of platelet production efficiency (PLT/MK) [2]: 9.7

SMILES: CC1(C)CSc2nc3c(NCCc4ccc(O)c(-c5cccc(F)c5)c4)nc(-c4cncc(F)c4)nc3n21 [Example 9]
- IC50 [1]: 0.32 nM
- Static (vs veh): fold increase of platelet production efficiency (PLT/MK) [2]: 4.9

SMILES: CCc1cccc(-c2cc(CCNc3nc(-c4cncc(F)c4)nc4c3nc3n4C(C)(C)CO3)ccc2O)c1 [Example 15]
- IC50 [1]: 5.5 nM
- Static (vs veh): fold increase of platelet production efficiency (PLT/MK) [2]: 11

SMILES: CC1(C)COc2nc3c(NCCc4ccc(O)c(-c5cccc(F)c5)c4)nc(-c4cncc(C#N)c4)nc3n21 [Example 36]
- IC50 [1]: 0.7 nM
- Static (vs veh): fold increase of platelet production efficiency (PLT/MK) [2]: 2.7

SMILES: Cc1cncc(-c2nc(NCCc3ccc(O)c(-c4ccc(F)cc4)c3)c3nc4n(c3n2)C(C)(C)CO4)c1 [Example 25]
- IC50 [1]: 4.4 nM
- Static (vs veh): fold increase of platelet production efficiency (PLT/MK) [2]: 5.7

SMILES: CC1(C)COc2nc3c(NCCc4ccc(O)c(-c5cc(F)cc(C#N)c5)c4)nc(-c4cncc(F)c4)nc3n21 [Example 56]
- IC50 [1]: 13 nM
- Static (vs veh): fold increase of platelet production efficiency (PLT/MK) [2]: 6.5

SMILES: Cc1cncc(-c2nc(NCCc3ccc(O)c(-c4cccc(C#N)c4F)c3)c3nc4n(c3n2)C(C)(C)CO4)c1 [Example 68]
- IC50 [1]: 2.8 nM
- Static (vs veh): fold increase of platelet production efficiency (PLT/MK) [2]: 3.2

SMILES: Cc1cncc(-c2nc(NCCc3ccc(O)c(-c4ccccc4F)c3)c3nc4n(c3n2)C(C)(C)CS4)c1 [Example 26]
- IC50 [1]: 1 nM
- Static (vs veh): fold increase of platelet production efficiency (PLT/MK) [2]: 5.0

SMILES: CC1(C)CSc2nc3c(NCCc4ccc(O)c(-c5cncc(C#N)c5)c4)nc(-c4cncc(F)c4)nc3n21 [Example 76]
- IC50 [1]: 5.7 nM
- Static (vs veh): fold increase of platelet production efficiency (PLT/MK) [2]: 2.4

SMILES: CC1(C)CSc2nc3c(NCCc4ccc(O)c(-c5ccccc5)c4)nc(-c4cncc(F)c4)nc3n21 [Example 47]
- IC50 [1]: 0.38 nM
- Static (vs veh): fold increase of platelet production efficiency (PLT/MK) [2]: 3.7

SMILES: CC1(C)COc2nc3c(NCCc4ccc(O)c(-c5cccc(F)c5)c4)nc(-c4cncc(F)c4)nc3n21 [Example 3]
- IC50 [1]: 2.9 nM
- Static (vs veh): fold increase of platelet production efficiency (PLT/MK) [2]: 6.8

SMILES: Cc1cccc(-c2cc(CCNc3nc(-c4cncc(F)c4)nc4c3nc3n4C(C)(C)CO3)ccc2O)c1 [Example 14]
- IC50 [1]: 11 nM
- Static (vs veh): fold increase of platelet production efficiency (PLT/MK) [2]: 7.9

SMILES: CC1(C)COc2nc3c(NCCc4c[nH]c5ccccc45)nc(-c4ccc5nccn5c4)nc3n21 [Example 110]
- IC50 [1]: 40 nM
- Static (vs veh): fold increase of platelet production efficiency (PLT/MK) [2]: 6.1

SMILES: CC1(C)COc2nc3c(NCCc4ccc(O)c(-c5cccc(C#N)c5)c4)nc(-c4ccnc(F)c4)nc3n21 [Example 64]
- IC50 [1]: 5.7 nM
- Static (vs veh): fold increase of platelet production efficiency (PLT/MK) [2]: 3.7

SMILES: C[C@@H]1CSc2nc3c(NCCc4ccc(O)c(-c5cccc(C#N)c5)c4)nc(-c4cncc(C#N)c4)nc3n21 [Example 61]
- IC50 [1]: 0.71 nM
- Static (vs veh): fold increase of platelet production efficiency (PLT/MK) [2]: 3.9

SMILES: CC1(C)CSc2nc3c(NCCc4ccc(O)c(-c5cccc(C#N)c5)c4)nc(-c4cncc(C#N)c4)nc3n21 [Example 60]
- IC50 [1]: 0.43 nM
- Static (vs veh): fold increase of platelet production efficiency (PLT/MK) [2]: 3.4

SMILES: CC1(C)COc2nc3c(NCCc4c[nH]c5ccccc45)nc(-c4cc(F)ccc4F)nc3n21 [Example 87]
- IC50 [1]: 38 nM
- Static (vs veh): fold increase of platelet production efficiency (PLT/MK) [2]: 3.9

SMILES: CC1(C)COc2nc3c(NCCc4ccc(O)c(-c5cccc(C#N)c5)c4)nc(-c4cncc(C(F)F)c4)nc3n21 [Example 62, 3-[5-[2-[[2-[5-(difluoromethyl)pyridin-3-yl]-8,8-dimethyl-7H-purino[8,9-b][1,3]oxazol-4-yl]amino]ethyl]-2-hydroxyphenyl]benzonitrile]
- IC50 [1]: 1.9 nM
- Static (vs veh): fold increase of platelet production efficiency (PLT/MK) [2]: 5.1

SMILES: Cc1cncc(-c2nc(NCCc3ccc(O)c(-c4ccccc4F)c3)c3nc4n(c3n2)C(C)(C)CO4)c1 [Example 23]
- IC50 [1]: 9.6 nM
- Static (vs veh): fold increase of platelet production efficiency (PLT/MK) [2]: 8.0
